This is an account of results in US11931465B2, “Functionalized Prussian blue nanoparticles, combination Prussian blue nanoparticle-based nano-immunotherapy and applications thereof” (Children's National Medical Center, priority 2016, dated 2024).

The test system of one test is M2 MPNST tumors. The test is described as follows: Syngeneic subcutaneous mouse model of MPNST. Format: in vivo. The settings on record: PD901 5 mg/kg daily oral; PTT 50 μL 1 mg/mL PBNPs intratumoral, 1.5 W/cm^2 10 minutes, once. The procedure: In vivo studies. 1 million M2 cells were injected into the backs of B6129SF1/J mice in 100 μL 50% phosphate buffered saline (PBS, Life Technologies, Carlsbad, CA)/50% Matrigel (Corning, Corning, NY). Treatment commenced when tumors reached 10 mm in diameter. Animals were treated in four groups: (1) Untreated (n=5): animals received no treatment, (2) PTT-treated (n=5): animals were intratumorally injected with 50 μL of 1 mg/mL PBNPs and irradiated for 10 minutes with 1.5 W/cm^2 NIR laser, (3) PD901-treated (n=5): animals were given 5 mg/kg PD901 daily by oral gavage in 0.5% hydroxypropyl methylcellulose and 0.2% Tween80, and (4) PD901 plus PTT combo-treated (n=5): animals were given both PTT and PD901 treatments as listed above. […] Tumors were measured daily by calipers. For histological analysis of the effects of the treatments, tumors were harvested eight hours post treatment (treatments described above; n=2-3 per group), processed, and stained with hematoxylin and eosin (H&E) for subsequent microscopy.

For test [1], the system named is M2 mouse MPNST cells. The test is described as follows: CellTiter-Glo cell viability assay. Format: cell-based. As to conditions: 48 h, 48 h treatment. The protocol:
Cell viability assays. M2 cells were seeded at 50,000 cells per well in 96-well cell culture plates overnight. After treatment, the cells were analyzed for viability using the ATP-based CellTiter-Glo Luminescent Cell Viability Assay (Promega, Madison, WI).
In general terms: In ATP-based viability assays light output follows the ATP content of the culture.

The test system of test [2] is M2 mouse MPNST cells. Briefly: Flow cytometry for apoptosis/necrosis and cell cycle. As to conditions: 0.1, 1 and 10 μM, 24 h. The format is cell-based. The protocol: Flow cytometry. After the relevant treatments, M2 cells were stained with PE-Annexin V (BD Pharmingen, Franklin Lakes, NJ) and 7AAD (BD Pharmingen, Franklin Lakes, NJ). For cell cycle analysis, M2 cells were stained with propidium iodide (ThermoFisher Scientific, Carlsbad, CA) after treatment. Flow cytometry was performed on a BD FACSCalibur and analyzed with the FlowJo 7.6 software.
(In flow cytometry, cells or beads pass a laser one at a time.)

The subject of another test is ERK activation (p-ERK). The test is described as follows: Western blot for p-ERK in M2 cells. The format is cell-based, mouse. The procedure: Western blots. Treated M2 cells were lysed in 1×RIPA buffer [50 mM Tris-HCL (pH 7.4), 150 mM NaCl, 1% Triton X-100, 1% sodium deoxycholate, 0.1% SDS, 1 mM EDTA, complete protease inhibitor (Roche, Basel, Switzerland) and phosphatase inhibitor (Roche, Basel, Switzerland)]. Samples were analyzed by SDS-PAGE and transferred onto PVDF membranes (Millipore, Billerica, MA). The blots were then blocked in 5% non-fat milk in TBST, followed by incubation of primary antibodies at 4° C. overnight. After washing, the blots were incubated in horseradish peroxidase (HRP)-conjugated secondary antibodies at room temperature for 1 hour. Signals were detected using ECL or ECL plus (GE healthcare, Little Chalfont, United Kingdom) followed by film development. The primary antibodies used are as follows: p-ERK (1:1,000, rabbit, Cell Signaling, Danvers, MA), ERK (1:2,000, rabbit, Cell Signaling, Danvers, MA), and β-actin (1:10,000, mouse, Sigma-Aldrich, St. Louis, MO).
In general terms: Immunoblotting shows a protein as a band on a membrane.

“Also recorded” adds a separate entry of the source.

On to `O=C(NOC[C@H](O)CO)c1ccc(F)c(F)c1Nc1ccc(I)cc1F` [PD901, PD-0325901], for which the median survival in the test on M2 MPNST tumors stood at 18 days. For the same molecule, the IC50 with M2 mouse MPNST cells [1] was around 1000 nM. Further, the “mechanism of cell death” value in the test with M2 mouse MPNST cells [2] was “both apoptosis (Annexin V+7AAD−) and late apoptosis/necrosis (7AAD+)”. Further, the cell cycle effect entry with M2 mouse MPNST cells [2] (concentration-dependent) was “significant arrest of M2 cells in the G0/G1 phase”. Besides, the “p-ERK expression / ERK activation” value in the test on ERK activation (p-ERK) (1 μM, 4 h or 8 h, versus vehicle) is recorded as “effectively blocked; also recorded: markedly decreased”. Further, the p-ERK expression entry with ERK activation (p-ERK) (4 h, HIGH doses: 1.0 μM PD901, 0.05 mg/mL PBNP + 1.5 W/cm^2 laser 10 minutes) was “complete eradication”.

In general, IC50 refers to the concentration that inhibits the measured activity by half. Read a high IC50 as a need for much substance.
